Results: patent US12187709B2 (Genentech, Inc., priority 2021, dated 2025)

What was measured:
[1] = biological target: c-Cbl (Homo sapiens (Human), UniProt P22681); assay: C-Cbl LCK Ub TR-FRET assay (C-cbl Lck HTRF); format: biochemical
Procedure, shortened: (§1)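 Detection reagents added, brief spin, 20 min RT. IC50 fit normalized to no-LCK (low) and DMSO (high) controls.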

[2] = biological target: Cbl-b (Homo sapiens (Human), UniProt Q13191); assay: Cbl-b LCK Ub TR-FRET assay (Cbl-b Lck HTRF); format: biochemical; settings: for IC50: Cbl-b LCK Ub TR-FRET, Example 121; for (fold-selectivity) Cbl-b and C-Cbl Selectivity: ratio C-cbl Lck HTRF IC50 / Cbl-b Lck HTRF IC50
Chain of Cbl-b (Q13191 40-426): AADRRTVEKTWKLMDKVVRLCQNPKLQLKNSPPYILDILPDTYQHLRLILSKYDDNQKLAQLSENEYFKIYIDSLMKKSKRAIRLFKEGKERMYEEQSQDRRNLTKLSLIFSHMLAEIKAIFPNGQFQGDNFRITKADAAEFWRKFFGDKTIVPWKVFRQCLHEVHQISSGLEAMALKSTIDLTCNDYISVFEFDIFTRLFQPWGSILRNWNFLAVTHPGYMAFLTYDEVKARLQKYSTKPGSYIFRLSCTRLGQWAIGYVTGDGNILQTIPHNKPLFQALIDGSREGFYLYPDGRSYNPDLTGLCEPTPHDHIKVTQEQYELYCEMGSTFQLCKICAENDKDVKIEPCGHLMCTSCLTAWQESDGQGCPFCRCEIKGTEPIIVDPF
Procedure, shortened: as §1

[3] = biological target: Human Cbl-b (residues 40-426) (Homo sapiens (Human), UniProt Q13191); assay: Cbl-b SPR assay; format: binding; settings: for Fold of selectivity: C-cbl SPR Kd vs Cbl-b SPR Kd; for Kd: SPR, 20° C.
Chain of Human Cbl-b (residues 40-426) (Q13191 40-426): as above
Procedure, shortened: (§2)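 First, protein is captured to 1300-1500 RU. Then compound runs in single cycle kinetics, a blank plus 5 two-fold concentrations up to 500 nM (120 s contact, 50 μl/min, 450 s dissociation). Chaser injections (20 s, 30 μl/min) track occupancy, giving kd, which is fixed when fitting the titration.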

[4] = biological target: c-Cbl (residues 47-435) (Homo sapiens (Human), UniProt P22681); assay: c-Cbl SPR assay; format: binding; settings: 20° C.
Chain of c-Cbl (residues 47-435) (P22681 47-435): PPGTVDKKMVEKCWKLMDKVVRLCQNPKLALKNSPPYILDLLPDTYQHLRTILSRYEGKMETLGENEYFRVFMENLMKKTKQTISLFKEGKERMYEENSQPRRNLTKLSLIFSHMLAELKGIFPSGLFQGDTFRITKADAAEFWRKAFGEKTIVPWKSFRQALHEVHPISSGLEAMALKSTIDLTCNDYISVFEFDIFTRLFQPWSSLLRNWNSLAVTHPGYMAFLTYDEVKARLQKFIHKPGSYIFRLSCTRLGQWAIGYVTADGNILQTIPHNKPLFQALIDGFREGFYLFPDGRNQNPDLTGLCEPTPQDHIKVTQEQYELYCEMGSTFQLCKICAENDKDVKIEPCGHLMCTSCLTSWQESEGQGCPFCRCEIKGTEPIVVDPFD
Procedure, shortened: as §2

Chain of c-Cbl (P22681 47-435): as above

| SMILES | IC50 [1] | IC50 [2] | (fold-selectivity) Cbl-b and C-Cbl Selectivity [2] | Fold of selectivity [3] | Kd [3] | Kd [4] |
| --- | --- | --- | --- | --- | --- | --- |
| COCC1(NCc2cc3c(c(C(F)(F)F)c2)CN(c2cccc([C@]4(c5nncn5C)C[C@H](OC)C4)c2)C3=O)CC1 [Compound 487, 2-(3-((1r,3r)-3-methoxy-1-(4-methyl-4H-1,2,4-triazol-3-yl)cyclobutyl)phenyl)-6-(((1-(methoxymethyl)cyclopropyl)amino)methyl)-4-(trifluoromethyl)isoindolin-1-one] | 0.15 µM | 0.019 µM | 7.4x | 41× | 0.0049 µM | 0.21 µM |
| CO[C@H]1C[C@](c2cccc(N3Cc4c(cc(CNC5CC(C)(C)C5)cc4C(F)(F)F)C3=O)c2)(c2nncn2C)C1 [Compound 488, 6-(((3,3-dimethylcyclobutyl)amino)methyl)-2-(3-((1r,3r)-3-methoxy-1-(4-methyl-4H-1,2,4-triazol-3-yl)cyclobutyl)phenyl)-4-(trifluoromethyl)isoindolin-1-one] | 0.014 µM | 0.0058 µM | 2.4x | 13× | 0.001 µM | 0.013 µM |
| CO[C@H]1C[C@](c2cccc(N3Cc4c(cc(CNCC5(CO)CCC5)cc4C(F)(F)F)C3=O)c2)(c2nncn2C)C1 [Compound 489, 6-((((1-(hydroxymethyl)cyclobutyl)methyl)amino)methyl)-2-(3-((1r,3r)-3-methoxy-1-(4-methyl-4H-1,2,4-triazol-3-yl)cyclobutyl)phenyl)-4-(trifluoromethyl)isoindolin-1-one] | 0.074 µM | 0.014 µM | 5.3x | 7.8× | 0.0062 µM | 0.048 µM |
| CO[C@H]1C[C@](c2cccc(N3Cc4c(cc(CN5CCCCCC5)cc4C(F)(F)F)C3=O)c2)(c2nncn2C)C1 [Compound 490, 6-(azepan-1-ylmethyl)-2-(3-((1r,3r)-3-methxoy-1-(4-methyl-4H-1,2,4-triazol-3-yl)cyclobutyl)phenyl)-4-(trifluoromethyl)isoindolin-1-one] | 0.27 µM | 0.055 µM | 5.0 x | 14× | 0.032 µM | 0.48 µM |
| CO[C@H]1C[C@](c2cccc(N3Cc4c(cc(CNCCOC(F)F)cc4C(F)(F)F)C3=O)c2)(c2nncn2C)C1 [Compound 491, 6-(((2-(difluoromethoxy)ethyl)amino)methyl)-2-(3-((1r,3r)-3-methoxy-1-(4-methyl-4H-1,2,4-triazol-3-yl)cyclobutyl)phenyl)-4-(trifluoromethyl)isoindolin-1-one] | 0.036 µM | 0.0084 µM | 4.3x | 17× | 0.0029 µM | 0.048 µM |
| CO[C@H]1C[C@](c2cccc(N3Cc4c(cc(CN[C@H]5[C@@H]6COC[C@@H]65)cc4C(F)(F)F)C3=O)c2)(c2nncn2C)C1 [Compound 492, 6-(((1R,5S,6r)-3-oxabicyclo[3.1.0]hexan-6-ylamino)methyl)-2-(3-((1r,3R)-3-methoxy-1-(4-methyl-4H-1,2,4-triazol-3-yl)cyclobutyl)phenyl)-4-(trifluoromethyl)isoindolin-1-one] | 0.087 µM | 0.014 µM | 6.2x | 15× | 0.012 µM | 0.18 µM |
| COCCC1(NCc2cc3c(c(C(F)(F)F)c2)CN(c2cccc([C@]4(c5nncn5C)C[C@H](OC)C4)c2)C3=O)CCC1 [Compound 493, 2-(3-((1r,3r)-3-methoxy-1-(4-methyl-4H-1,2,4-triazol-3-yl)cyclobutyl)phenyl)-6-(((1-(2-methoxyethyl)cyclobutyl)amino)methyl)-4-(trifluoromethyl)isoindolin-1-one] | 0.23 µM | 0.028 µM | 8.5x | 7.8× | 0.018 µM | 0.14 µM |
| CO[C@H]1C[C@](c2cccc(N3Cc4c(cc(CNC5CC(C(F)F)C5)cc4C(F)(F)F)C3=O)c2)(c2nncn2C)C1 (stereo partly drawn) [Compound 494, 6-(((3-(difluoromethyl)cyclobutyl)amino)methyl)-2-(3-((1r,3r)-3-methoxy-1-(4-methyl-4H-1,2,4-triazol-3-yl)cyclobutyl)phenyl)-4-(trifluoromethyl)isoindolin-1-one] | 0.025 µM | 0.0083 µM | 3.1x | 11× | 0.0018 µM | 0.02 µM |
| COCC1(NCc2cc3c(c(C(F)(F)F)c2)CN(c2cccc([C@]4(c5nncn5C)C[C@H](OC)C4)c2)C3=O)CCC1 [Compound 495, 2-(3-((1r,3r)-3-methoxy-1-(4-methyl-4H-1,2,4-triazol-3-yl)cyclobutyl)phenyl)-6-(((1-(methoxymethyl)cyclobutyl)amino)methyl)-4-(trifluoromethyl)isoindolin-1-one] | 0.11 µM | 0.018 µM | 6.7x | 12× | 0.0085 µM | 0.11 µM |
| CO[C@H]1C[C@](c2cccc(N3Cc4c(cc(CNCC5(CF)CC5)cc4C(F)(F)F)C3=O)c2)(c2nncn2C)C1 [Compound 496, 6-((((1-(fluoromethyl)cyclopropyl)methyl)amino)meth-yl)-2-(3-((1r,3r)-3-methoxy-1-(4-methyl-4H-1,2,4-triazol-3-yl)cyclobutyl)phenyl)-4-(trifluoromethyl)isoindolin-1-one] | 0.087 µM | 0.017 µM | 5.2x | 12× | 0.0061 µM | 0.073 µM |
| CO[C@H]1C[C@](c2cccc(N3Cc4c(cc(CNC5CC(C)(F)C5)cc4C(F)(F)F)C3=O)c2)(c2nncn2C)C1 (stereo partly drawn) [Compound 497, 6-(((3-fluoro-3-methylcyclobutyl)amino)methyl)-2-(3-((1r,3r)-3-methoxy-1-(4-methyl-4H-1,2,4-triazol-3-yl)cyclobutyl)phenyl)-4-(trifluoromethyl)isoindolin-1-one] | 0.024 µM | 0.0052 µM | 4.7x | 14× | 0.0019 µM | 0.0266 µM |
| CO[C@H]1C[C@](c2cccc(N3Cc4c(cc(CNC5CC6CC6C5)cc4C(F)(F)F)C3=O)c2)(c2nncn2C)C1 (stereo partly drawn) [Compound 498, 6-((bicyclo[3.1.0]hexan-3-ylamino)methyl)-2-(3-((1r,3r)-3-methoxy-1-(4-methyl-4H-1,2,4-triazol-3-yl)cyclobutyl)phenyl)-4-(trifluoromethyl)isoindolin-1-one] | 0.015 µM | 0.0041 µM | 3.6x | 16× | 0.0008 µM | 0.013 µM |
| CO[C@H]1C[C@](c2cccc(N3Cc4c(cc(CNCCC5CCC5(F)F)cc4C(F)(F)F)C3=O)c2)(c2nncn2C)C1 (stereo partly drawn) [Compound 499, 6-(((2-(2,2-difluorocyclobutyl)ethyl)amino)methyl)-2-(3-((1r,3r)-3-methoxy-1-(4-methyl-4H-1,2,4-triazol-3-yl)cyclobutyl)phenyl)-4-(trifluoromethyl)isoindolin-1-one] | 0.078 µM | 0.016 µM | 5.0x | 19× | 0.0037 µM | 0.079 µM |
| CO[C@H]1C[C@](c2cccc(N3Cc4c(cc(CNC5C[C@@H]6C[C@H]5CO6)cc4C(F)(F)F)C3=O)c2)(c2nncn2C)C1 (stereo partly drawn) [Compound 500, 6-((2-oxabicyclo[2.2.1]heptan-5-ylamino)methyl)-2-(3-((1r,3r)-3-methoxy-1-(4-methyl-4H-1,2,4-triazol-3-y)cyclobutyl)phenyl)-4-(trifluoromethyl)isoindolin-1-one] | 0.085 µM | 0.016 µM | 5.3x | 12× | 0.01 µM | 0.12 µM |
| CO[C@H]1C[C@](c2cccc(N3Cc4c(cc(CNCC5(C)CC5(F)F)cc4C(F)(F)F)C3=O)c2)(c2nncn2C)C1 (stereo partly drawn) [Compound 501, 6-((((2,2-difluoro-1-methylcyclopropyl)methyl)amino)methyl)-2-(3-((1r,3r)-3-methoxy-1-(4-methyl-4H-1,2,4-triazol-3-yl)cyclobutyl)phenyl)-4-(trifluoromethyl)isoindolin-1-one] | 0.052 µM | 0.011 µM | 4.8x | 16× | 0.0046 µM | 0.081 µM |
| CO[C@H]1C[C@](c2cccc(N3Cc4c(cc(CN[C@@H]5C[C@H]5C)cc4C(F)(F)F)C3=O)c2)(c2nncn2C)C1 [Compound 502, 2-(3-((1r,3R)-3-methoxy-1-(4-methyl-4H-1,2,4-triazol-3-yl)cyclobutyl)phenyl)-6-((((1R,2R)-2-methylcyclopropyl)amino)methyl)-4-(trifluoromethyl)isoindolin-1-one] | 0.039 µM | 0.0094 µM | 4.1x | 14× | 0.005 µM | 0.069 µM |
